Reference: BindingDB's records for patent US20250092022 (Neurocrine Biosciences, 2025)

Target: T1, Muscarinic acetylcholine receptor M4 (Homo sapiens, UniProt P08173)
T1 sequence (P08173 whole entry): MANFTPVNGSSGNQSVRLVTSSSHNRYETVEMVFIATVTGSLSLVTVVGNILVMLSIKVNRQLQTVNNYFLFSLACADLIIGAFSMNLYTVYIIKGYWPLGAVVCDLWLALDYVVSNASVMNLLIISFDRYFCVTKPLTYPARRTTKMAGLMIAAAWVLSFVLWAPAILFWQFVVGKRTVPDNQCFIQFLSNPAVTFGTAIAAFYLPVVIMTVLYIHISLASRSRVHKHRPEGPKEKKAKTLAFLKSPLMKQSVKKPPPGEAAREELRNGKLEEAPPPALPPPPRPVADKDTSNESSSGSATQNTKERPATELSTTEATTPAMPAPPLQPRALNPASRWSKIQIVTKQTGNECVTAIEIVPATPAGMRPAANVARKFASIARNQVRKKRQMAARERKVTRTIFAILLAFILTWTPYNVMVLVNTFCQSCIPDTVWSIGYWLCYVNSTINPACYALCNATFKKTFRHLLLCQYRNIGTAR
Experiment: Binding Assay
Description: Binding affinity (Ki) for the compounds was measured by inhibition of radioligand binding to membranes from CHO cells expressing human M4 receptor. Membranes were prepared by nitrogen cavitation and differential centrifugation as previously described (Hoare et al., Mol. Pharmacol. 2003 March; 63(3): 751-65). The radioligand employed was tritiated N-methylscopolamine, used at a concentration of 1.5 nM. A dose-response of twelve concentrations of compound was used, […]. The assay buffer was 50 mM HEPES, 100 mM NaCl, 5 mM MgCl2, 1 mM ethylenediaminetetraacetic acid, pH-adjusted to pH 7.4. Membranes, radioligand and compound were incubated together for 90 minutes at 37° C., in a total volume of 150 μL in a 96-well plate. Receptor-bound radioligand was then collected by harvesting the assay over glass fiber filters pretreated with polyethylenimine to trap the cell membranes, using rapid vacuum filtration. Harvesting and radioactivity counting was conducted as previously described (see, e.g., Hoare et al., Mol. Pharmacol. 2003 63(3):751-65); Erratum at Mol. Pharmacol. 2005 July; 68(1): 260).

`C[C@@H]1CN(c2ncc(S(=O)(=O)C(F)F)cn2)C[C@H](C)N1C(=O)OC1CC2(C1)CN(Cc1ccccc1)C2` [US20250092022, Compound 41] and `C[C@@H]1CN(c2ncc(S(=O)(=O)C3CC3)cn2)C[C@@H](C)N1C(=O)OC1CC2(C1)CN(Cc1ccccc1)C2` [US20250092022, Compound 19] cannot be ordered by Ki: < 100 nM for the first, < 100 nM for the second.

First: C[C@@H]1CN(c2ncc(OCCO)cn2)C[C@H](C)N1C(=O)OC1CC2(C1)CN(Cc1ccccc1)C2 [US20250092022, Compound 52]
Second: Cc1nc(N2C[C@@H](C)N(C(=O)OC3CC4(C3)CN(Cc3ccccc3)C4)[C@@H](C)C2)ncc1S(C)(=O)=O [US20250092022, Compound 40]
The Ki of the first is higher: > 500 nM for the first, < 100 nM for the second. The second binds more tightly here.
